Reference: patent US10376506B2, “Use of an opioid receptor antagonist with kappa-activity and vortioxetine for treatment of depressive disorder with melancholic features” (H. Lundbeck A/S, priority 2013, dated 2019)
Counter-ions that a name gives are not always drawn.

What was measured:
μ-opioid receptors = μ-opioid receptors (Homo sapiens, UniProt P35372); conditions: in vitro studies; cited from earlier work
Male Wistar rats = experiment: Sucrose preference test (chronic mild stress model, CMS); format: in vivo, rat; conditions: for effect on sucrose intakes in control animals, compared to vehicle: control rats; for effect on sucrose intakes in control animals, compared to vehicle / effect on sucrose consumption in stressed animals, compared to vehicle: daily IP for five weeks, imipramine 10 mg/kg, vortioxetine 10 mg/kg, nalmefene 1 mg/kg, 1% sucrose solution; for effect on sucrose consumption in stressed animals, compared to vehicle: rats exposed to chronic mild stress; for weeks of treatment after which increase in sucrose intakes reached statistical significance versus Week 0 / overall effect in the CMS model (conclusion): stressed animals; for weeks of treatment after which increase in sucrose intakes reached statistical significance versus Week 0: daily IP; for overall effect in the CMS model (conclusion): five weeks of treatment
Source text: Rodents inherently have an interest in sweet foods or liquids. Exposure to stressfull conditions reduces the interest for sweet foods or solutions, indicating a reduced sensitivity to rewards. This can be assessed for example in a sucrose preference test, where the stress-induced reduction of intake of a sucrose solution is used as a measure of anhedonia (reduces sensitivity to rewards). This stress-induced reduction of sucrose intake in the rat is a well-established animal model of anhedonia (Nielsen, Arnt and Sánchez. Intracranial self-stimulation and sucrose intake differ as hedonic measures following chronic mild stress: interstrain and interindividual differences. Behav. Brain. Res. (2000), 107 (1-2): 21-33).
Male Wistar rats (Charles River, Germany) were brought into the laboratory one month before the start of the experiment. Except as described below, the animals were singly housed with food and water freely available, and were maintained on a 12-h light/dark cycle (lights on at 08.00) and in a constant temperature (22±2° C.) and humidity (50±5%) conditions. All procedures used in this study are conformed to the rules and principles of the 86/609/EEC Directive, and were approved by the Local Bioethical Committee at the Institute of Pharmacology, Polish Academy of Sciences, Krakow, Poland.
After a period of 3 weeks of adaptation to laboratory and housing conditions, the animals were trained to consume a 1% sucrose solution; training consisted of nine 1 h baseline tests in which sucrose was presented, in the home cage, following 14 h food and water deprivation. The sucrose intake was measured by weighing pre-weighed bottles containing the sucrose solution, at the end of the test. Subsequently, sucrose consumption was monitored, under similar conditions, at weekly intervals throughout the whole experiment.
On the basis of their sucrose intakes in the final baseline test, the animals were divided into two matched groups. One group of animals was subjected to the chronic mild stress procedure for a period of 8 consecutive weeks. Each week of stress regime consisted of: two periods of food or water deprivation, two periods of 45 degree cage tilt, two periods of intermittent illumination (lights on and off every 2 h), two periods of soiled cage (250 ml water in sawdust bedding), one period of paired housing, two periods of low intensity stroboscopic illumination (150 flashes/min), and three periods of no stress. All stressors were 10-14 h of duration and were applied individually and continuously, day and night. […] They were deprived of food and water for 14 h preceding each sucrose test, but otherwise food and water were freely available in the home cage.
(§1) On the basis of their sucrose intakes following 2 weeks of initial stress, both stressed and control groups were each divided further into matched subgroups (n=8), and for subsequent five weeks they received daily IP administration of vehicle (0.9% saline, 1 ml/kg), Vortioxetine (10 mg/kg), Nalmefene (1 mg/kg), joint injections of Vortioxetine (10 mg/kg) and Nalmefene (1 mg/kg) or imipramine HCl (10 mg/kg) as the reference treatment. The volume of all injections was 1 ml/kg. The drugs were administered at approx. 10.00 and the weekly sucrose tests were carried out 24 h following the last drug injections. After five weeks all treatments were terminated and one additional sucrose test was carried out following one week of withdrawal. Stress was continued throughout the entire period of treatment and withdrawal.
The Fisher's LSD test was used for post-hoc comparisons of means.

δ-opioid receptors = δ-opioid receptors (Homo sapiens, UniProt P41143); conditions: in vitro studies; cited from earlier work
Chain of δ-opioid receptors (P41143 whole entry): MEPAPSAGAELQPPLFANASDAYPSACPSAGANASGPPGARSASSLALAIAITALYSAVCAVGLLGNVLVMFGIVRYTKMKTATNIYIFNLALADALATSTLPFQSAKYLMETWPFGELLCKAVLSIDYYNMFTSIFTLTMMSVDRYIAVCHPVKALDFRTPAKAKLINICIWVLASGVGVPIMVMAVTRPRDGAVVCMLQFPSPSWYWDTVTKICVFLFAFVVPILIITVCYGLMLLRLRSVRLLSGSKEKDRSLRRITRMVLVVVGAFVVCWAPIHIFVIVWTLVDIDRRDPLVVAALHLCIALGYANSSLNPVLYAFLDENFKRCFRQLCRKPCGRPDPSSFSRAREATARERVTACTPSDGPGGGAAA

κ-opioid receptors = κ-opioid receptors (Homo sapiens, UniProt P41145); conditions: in vitro studies; cited from earlier work
Chain of κ-opioid receptors (P41145 whole entry): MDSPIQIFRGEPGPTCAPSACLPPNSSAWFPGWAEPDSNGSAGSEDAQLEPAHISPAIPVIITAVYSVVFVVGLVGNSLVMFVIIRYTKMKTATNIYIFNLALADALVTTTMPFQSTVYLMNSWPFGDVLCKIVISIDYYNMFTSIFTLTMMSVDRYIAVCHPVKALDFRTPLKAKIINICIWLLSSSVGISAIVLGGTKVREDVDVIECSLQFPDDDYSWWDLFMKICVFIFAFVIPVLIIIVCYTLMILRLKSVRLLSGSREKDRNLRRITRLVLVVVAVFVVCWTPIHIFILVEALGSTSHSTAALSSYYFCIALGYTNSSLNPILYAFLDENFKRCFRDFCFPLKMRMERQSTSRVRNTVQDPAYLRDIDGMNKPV

[1] = Body weights in the CMS study
Procedure: as §1

Chain of μ-opioid receptors (P35372 whole entry): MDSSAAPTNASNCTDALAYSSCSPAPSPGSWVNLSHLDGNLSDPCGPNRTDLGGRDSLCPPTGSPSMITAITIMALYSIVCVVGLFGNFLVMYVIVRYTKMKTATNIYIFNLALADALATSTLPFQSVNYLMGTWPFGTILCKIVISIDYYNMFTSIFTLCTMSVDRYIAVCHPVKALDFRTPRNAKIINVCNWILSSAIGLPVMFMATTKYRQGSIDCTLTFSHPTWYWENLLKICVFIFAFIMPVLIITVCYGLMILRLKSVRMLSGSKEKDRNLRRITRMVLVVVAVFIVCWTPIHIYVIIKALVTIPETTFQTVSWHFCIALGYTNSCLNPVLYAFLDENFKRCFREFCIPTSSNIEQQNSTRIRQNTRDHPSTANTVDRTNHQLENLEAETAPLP

C=C1CC[C@@]2(O)[C@H]3Cc4ccc(O)c5c4[C@@]2(CCN3CC2CC2)[C@H]1O5 [Nalmefene, 17-(cyclopropylmethyl)-4,5-alpha-epoxy-6-methylenemorphinan-3,14-diol]
functional activity at the μ receptor (μ-opioid receptors): antagonist activity
effect on sucrose intakes in control animals, compared to vehicle (Male Wistar rats): no effect
effect on sucrose consumption in stressed animals, compared to vehicle (Male Wistar rats): gradually increased
weeks of treatment after which increase in sucrose intakes reached statistical significance versus Week 0 (Male Wistar rats): four
overall effect in the CMS model (conclusion) (Male Wistar rats): effective
functional activity at the δ receptor (δ-opioid receptors): antagonist activity
functional activity at the κ receptor (κ-opioid receptors): partial agonist activity
effect on body weight compared to vehicle-treated group ([1]; control and stressed animals, decreases p<0.05 in controls, NS in stressed): did not affect
Body weights after five weeks of treatment (means ± SEM), Controls ([1]; control rats, daily IP): 371 ± 9 g
Body weights after five weeks of treatment (means ± SEM), Stressed ([1]; stressed rats, daily IP): 355 ± 11 g

Cc1ccc(Sc2ccccc2N2CCNCC2)c(C)c1 [Vortioxetine, 1-[2-(2,4-dimethyl-phenylsulfanyl)-phenyl]-piperazine]
effect on sucrose intakes in control animals, compared to vehicle (Male Wistar rats): no significant effect
effect on sucrose consumption in stressed animals, compared to vehicle (Male Wistar rats): no significant effect
overall effect in the CMS model (conclusion) (Male Wistar rats): not effective
effect on body weight compared to vehicle-treated group ([1]; rat, in vivo): decreased
Body weights after five weeks of treatment (means ± SEM), Controls ([1]; rat, in vivo, ip): 348 ± 9 g
Body weights after five weeks of treatment (means ± SEM), Stressed ([1]; rat, in vivo, ip): 328 ± 9 g

CN(C)CCCN1c2ccccc2CCc2ccccc21 [Imipramine, imipramine HCl]
effect on sucrose intakes in control animals, compared to vehicle (Male Wistar rats): no significant effect
effect on sucrose consumption in stressed animals, compared to vehicle (Male Wistar rats): gradually increased
weeks of treatment after which increase in sucrose intakes reached statistical significance versus Week 0 (Male Wistar rats): three
overall effect in the CMS model (conclusion) (Male Wistar rats): fully reversed
Body weights after five weeks of treatment (means ± SEM), Controls ([1]; control rats, daily IP): 350 ± 7 g
effect on body weight compared to vehicle-treated group ([1]; rat, in vivo): decreased
Body weights after five weeks of treatment (means ± SEM), Stressed ([1]; stressed rats, daily IP): 326 ± 7 g
